Assay: Respiratory rate (vital signs)
Details: 60 mg
Experimental: The Investigational Medicinal Product (IMP) R(−)-ketamine hydrochloride in sterile water for intravenous injection was investigated as an […] treatment of TRD. The International Union of Pure and Applied Chemistry (IUPAC) name is of the IMP is (2R)-2-(2-chlorophenyl)-2-(methylamino)cyclohexan-1-one. Subjects received the solution at either 30 mg or 60 mg dose, or a placebo. The IMP or placebo was administered on Day 1 as a single IV infusion via an electronic infusion pump over 40 minutes. The duration of study participation for each subject was up to 29 days including a screening period, a 3-day in-clinic visit, and 2 follow-up visits. 101 subjects were enrolled in approximately 20 study centers in the EU and the US.
Tympanic or temporal temperature, heart rate, blood pressure (SBP/DBP), respiratory rate, and SpO2 were assessed. Blood pressure and pulse measurements will be assessed with a completely automated device while the subject is supine or semi-supine. Manual techniques will be used only if an automated device is not available. Blood pressure and pulse measurements should be preceded by at least 5 minutes of rest for the subject in a quiet setting without distractions (e.g., television, cell phones). An abnormal blood pressure value at screening may be repeated once after 5 minutes of relaxation to determine the subject's eligibility. Blood pressure was recorded using the same arm and position (supine or semi-supine) throughout the study, where possible. Vital signs (to be taken before blood collection for laboratory tests) consisted of 1 pulse and 3 blood pressure measurements (3 consecutive blood pressure readings will be recorded at intervals of at least 1 minute). The average of the 3 blood pressure readings was recorded in the CRF. A pulse oximeter was used to measure peripheral capillary oxygen saturation (SpO2) continuously from pre-dose until 4-hours post-dose. A pulse oximeter was clipped onto the finger or foot of the subject, and light will be sent through the finger or foot and measured on the other side.
In these tables, baseline value is defined as the last non-missing value prior to study drug administration.

Structure (SMILES): CN[C@@]1(c2ccccc2Cl)CCCCC1=O.Cl [R(−)-ketamine, (2R)-2-(2-chlorophenyl)-2-(methylamino)cyclohexan-1-one]
- Respiratory Rate, Max (Day 1, 15 minutes): 18 breaths/minute
- Respiratory Rate, Mean (Day 1, 15 minutes): 15.5 breaths/minute
- Respiratory Rate, Median (Day 1, 15 minutes): 15.0 breaths/minute
- Respiratory Rate, Min (Day 1, 15 minutes): 14 breaths/minute
- Respiratory Rate, Max (Day 1, 40 minutes): 23 breaths/minute
- Respiratory Rate, Mean (Day 1, 40 minutes): 15.9 breaths/minute
- Respiratory Rate, Median (Day 1, 40 minutes): 16.0 breaths/minute
- Respiratory Rate, Min (Day 1, 40 minutes): 12 breaths/minute
- Respiratory Rate, Max (Day 1, 60 minutes): 16 breaths/minute
- Respiratory Rate, Mean (Day 1, 60 minutes): 15.2 breaths/minute
- Respiratory Rate, Median (Day 1, 60 minutes): 16.0 breaths/minute
- Respiratory Rate, Min (Day 1, 60 minutes): 12 breaths/minute
- Respiratory Rate, Max (Day 1, 2 hours): 19 breaths/minute
- Respiratory Rate, Mean (Day 1, 2 hours): 15.5 breaths/minute
- Respiratory Rate, Median (Day 1, 2 hours): 16.0 breaths/minute
- Respiratory Rate, Min (Day 1, 2 hours): 11 breaths/minute
- Respiratory Rate, Max (Day 1, 4 hours): 20 breaths/minute
- Respiratory Rate, Mean (Day 1, 4 hours): 15.9 breaths/minute
- Respiratory Rate, Median (Day 1, 4 hours): 16.0 breaths/minute
- Respiratory Rate, Min (Day 1, 4 hours): 12 breaths/minute
- Respiratory Rate, Max (Day 1, 6 hours): 20 breaths/minute
- Respiratory Rate, Mean (Day 1, 6 hours): 15.7 breaths/minute
- Respiratory Rate, Median (Day 1, 6 hours): 16.0 breaths/minute
- Respiratory Rate, Min (Day 1, 6 hours): 12 breaths/minute
- Respiratory Rate, Max (Day 2 - Discharge): 20 breaths/minute
- Respiratory Rate, Mean (Day 2 - Discharge): 15.9 breaths/minute
- Respiratory Rate, Median (Day 2 - Discharge): 16.0 breaths/minute
- Respiratory Rate, Min (Day 2 - Discharge): 12 breaths/minute
- Respiratory Rate, Max (Day 8): 18 breaths/minute
- Respiratory Rate, Mean (Day 8): 15.7 breaths/minute
- Respiratory Rate, Median (Day 8): 16.0 breaths/minute
- Respiratory Rate, Min (Day 8): 12 breaths/minute
- Respiratory Rate, Max (Day 15): 20 breaths/minute
- Respiratory Rate, Mean (Day 15): 15.8 breaths/minute
- Respiratory Rate, Median (Day 15): 16.0 breaths/minute
- Respiratory Rate, Min (Day 15): 12 breaths/minute
- Respiratory Rate, Change from Baseline, Max (to Day 1, 15 minutes): 2 breaths/minute
- Respiratory Rate, Change from Baseline, Mean (to Day 1, 15 minutes): −0.6 breaths/minute
- Respiratory Rate, Change from Baseline, Median (to Day 1, 15 minutes): −1.0 breaths/minute
- Respiratory Rate, Change from Baseline, Min (to Day 1, 15 minutes): −4 breaths/minute
- Respiratory Rate, Change from Baseline, Max (to Day 1, 40 minutes): 4 breaths/minute
- Respiratory Rate, Change from Baseline, Mean (to Day 1, 40 minutes): −0.0 breaths/minute
- Respiratory Rate, Change from Baseline, Median (to Day 1, 40 minutes): 0.0 breaths/minute
- Respiratory Rate, Change from Baseline, Min (to Day 1, 40 minutes): −4 breaths/minute
- Respiratory Rate, Change from Baseline, Max (to Day 1, 60 minutes): 1 breaths/minute
- Respiratory Rate, Change from Baseline, Mean (to Day 1, 60 minutes): −0.8 breaths/minute
- Respiratory Rate, Change from Baseline, Median (to Day 1, 60 minutes): −1.0 breaths/minute
- Respiratory Rate, Change from Baseline, Min (to Day 1, 60 minutes): −4 breaths/minute
- Respiratory Rate, Change from Baseline, Max (to Day 1, 2 hours): 2 breaths/minute
- Respiratory Rate, Change from Baseline, Mean (to Day 1, 2 hours): −0.5 breaths/minute
- Respiratory Rate, Change from Baseline, Median (to Day 1, 2 hours): 0.0 breaths/minute
- Respiratory Rate, Change from Baseline, Min (to Day 1, 2 hours): −4 breaths/minute
- Respiratory Rate, Change from Baseline, Max (to Day 1, 4 hours): 3 breaths/minute
- Respiratory Rate, Change from Baseline, Mean (to Day 1, 4 hours): −0.1 breaths/minute
- Respiratory Rate, Change from Baseline, Median (to Day 1, 4 hours): 0.0 breaths/minute
- Respiratory Rate, Change from Baseline, Min (to Day 1, 4 hours): −4 breaths/minute
- Respiratory Rate, Change from Baseline, Max (to Day 1, 6 hours): 6 breaths/minute
- Respiratory Rate, Change from Baseline, Mean (to Day 1, 6 hours): −0.2 breaths/minute
- Respiratory Rate, Change from Baseline, Median (to Day 1, 6 hours): 0.0 breaths/minute
- Respiratory Rate, Change from Baseline, Min (to Day 1, 6 hours): −8 breaths/minute
- Respiratory Rate, Change from Baseline, Max (to Day 2 - Discharge): 4 breaths/minute
- Respiratory Rate, Change from Baseline, Mean (to Day 2 - Discharge): −0.0 breaths/minute
- Respiratory Rate, Change from Baseline, Median (to Day 2 - Discharge): 0.0 breaths/minute
- Respiratory Rate, Change from Baseline, Min (to Day 2 - Discharge): −4 breaths/minute
- Respiratory Rate, Change from Baseline, Max (to Day 8): 4 breaths/minute
- Respiratory Rate, Change from Baseline, Mean (to Day 8): −0.2 breaths/minute
- Respiratory Rate, Change from Baseline, Median (to Day 8): 0.0 breaths/minute
- Respiratory Rate, Change from Baseline, Min (to Day 8): −6 breaths/minute
- Respiratory Rate, Change from Baseline, Max (to Day 15): 6 breaths/minute
- Respiratory Rate, Change from Baseline, Mean (to Day 15): −0.1 breaths/minute
- Respiratory Rate, Change from Baseline, Median (to Day 15): 0.0 breaths/minute
- Respiratory Rate, Change from Baseline, Min (to Day 15): −3 breaths/minute

From patent US20260027068A1, “METHODS OF ADM[…]-KETAMINE” (Perception Neuroscience, Inc., priority 2022, published 2026)
